Experimental data as given in ChEMBL document CHEMBL1201862, “PubChem BioAssay data set” (2004).
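Compound exposure: 48 hours, 5 concentrations, 96-well plates. Abbreviation: GI50, concentration required for 50% inhibition of growth.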 Active and inactive are the calls of the source. Rule as the data show it: active = GI50 up to about 1.1 µM and inactive = higher.

How the values were obtained:
Experiment in all cases: NCI tumour cell line growth inhibition, 48 h
[1] = test system: DLD-1
[2] = test system: HOP-18
[3] = test system: M19-MEL
[4] = test system: DMS-273
[5] = test system: DMS-114
[6] = test system: XF498
[7] = test system: KM-20L2
[8] = test system: SNB-78
[9] = test system: RXF 631

SMILES | GI50 [1] | GI50 [2] | GI50 [3] | GI50 [4] | GI50 [5] | GI50 [6] | GI50 [7] | GI50 [8] | GI50 [9]
COc1ccc2c(c1)Cc1c-2[nH]c2cc3c(cc2c1=O)OCO3 | 13.9 µM (inactive) | 17.5 µM (inactive) | 15.7 µM (inactive) | 7.67 µM (inactive) | 4.07 µM (inactive) | 15 µM (inactive) | 14.7 µM (inactive) | 8.83 µM (inactive) | 
CN(C)CCNC(=O)c1cccc2c(Nc3ccc(S(N)(=O)=O)cc3)c3ccccc3nc12 | 1.72 µM (inactive) | 2.71 µM (inactive) |  | 0.783 µM (active) | 0.461 µM (active) | 0.209 µM (active) | 2.71 µM (inactive) | 1.82 µM (inactive) | 1.4 µM (inactive)
Cc1cc(NCCCCCCNc2cc(C)nc3cc(N(C)C)ccc23)c2ccc(N(C)C)cc2n1 | 39.3 µM (inactive) |  | 27.7 µM (inactive) | 3.64 µM (inactive) |  | 13.7 µM (inactive) |  |  | > 100 µM (inactive)
CN1CCN(c2nc(N)c(Br)c(Cl)n2)CC1 | > 100 µM (inactive) |  | > 100 µM (inactive) | > 100 µM (inactive) | > 100 µM (inactive) | > 100 µM (inactive) | > 100 µM (inactive) | > 100 µM (inactive) | 
CCCC(=O)Nc1ccc(O)c2c1C1CCCCCC21 (stereo not drawn) |  | > 100 µM (inactive) | > 100 µM (inactive) | > 100 µM (inactive) | 50.2 µM (inactive) | 65 µM (inactive) | > 100 µM (inactive) | > 100 µM (inactive) | 
COc1ccc(C(=O)O/N=C2\CCCC\C2=C/c2ccccc2)cc1 | > 100 µM (inactive) | 51.5 µM (inactive) | > 100 µM (inactive) | > 100 µM (inactive) | 80.7 µM (inactive) | 35.5 µM (inactive) | > 100 µM (inactive) | 34 µM (inactive) | > 100 µM (inactive)
[O-]c1c2c(nn1-c1ccccc1)c1ccccc1c[n+]2Cc1ccccc1 | > 100 µM (inactive) | > 100 µM (inactive) | > 100 µM (inactive) | > 100 µM (inactive) | > 100 µM (inactive) | > 100 µM (inactive) | > 100 µM (inactive) | > 100 µM (inactive) | > 100 µM (inactive)
O=C(/C=C/c1ccccc1)CC(=O)CCC(=O)Nc1ccc(Cl)cc1 | 29.2 µM (inactive) | > 100 µM (inactive) | 71 µM (inactive) | 52.7 µM (inactive) | 57 µM (inactive) |  | 9.73 µM (inactive) | > 100 µM (inactive) | 
Cn1c2ccccc2c2cc(-c3ccccc3)c3c(c21)C(=O)C=CC3=O | 13.6 µM (inactive) |  | 20.1 µM (inactive) | 19.7 µM (inactive) | 9.38 µM (inactive) | 17.8 µM (inactive) |  | > 42.1 µM (inactive) | 30.3 µM (inactive)
Cc1ccc(NC(=O)CCc2cc(C(C)(C)C)nc(S)n2)cc1C |  | > 100 µM (inactive) |  | > 100 µM (inactive) | > 100 µM (inactive) | > 100 µM (inactive) | > 100 µM (inactive) | > 100 µM (inactive) | 
c1ccc(OC2=NC3=S(S2)SC(Oc2ccccc2)=N3)cc1 | 16.5 µM (inactive) |  | 17.8 µM (inactive) | 25.8 µM (inactive) | 19.9 µM (inactive) | 15.7 µM (inactive) | 22.3 µM (inactive) | 20.5 µM (inactive) | 25.1 µM (inactive)
CCCCCCCCCCCCCCCCCC(CCCCCCCCCCCCCCCCC)OP(=O)(O)O |  | > 100 µM (inactive) | > 100 µM (inactive) | > 100 µM (inactive) | > 100 µM (inactive) |  | > 100 µM (inactive) | > 100 µM (inactive) | 
COc1ccc(C[C@@H]2NC[C@@H](O)[C@@H]2OC(C)=O)cc1 | 1.77 µM (inactive) | 1.73 µM (inactive) | 1.79 µM (inactive) | 0.634 µM (active) | 1.45 µM (inactive) |  | 3.95 µM (inactive) |  | 
CC#COP(=O)(OCC)OCC | > 100 µM (inactive) |  | > 100 µM (inactive) |  | > 100 µM (inactive) |  | > 100 µM (inactive) | > 100 µM (inactive) | > 100 µM (inactive)
COC(=O)c1cc2ccccc2c2nc3ccccc3c(Cl)c12 | > 100 µM (inactive) |  | > 100 µM (inactive) | > 100 µM (inactive) | > 100 µM (inactive) | > 100 µM (inactive) | 11.4 µM (inactive) |  | > 100 µM (inactive)
CC1=CC[C@@H](C(C)(C)O)C[C@@H]1O | > 5000 µM (inactive) |  | > 5000 µM (inactive) |  | > 5000 µM (inactive) | > 5000 µM (inactive) | > 5000 µM (inactive) | > 5000 µM (inactive) | > 5000 µM (inactive)
Cc1ccc2c(c1)c(=O)c1c(NCCN(C)C)ccc3nnn2c31 | 2.88 µM (inactive) | 9.93 µM (inactive) | 6.21 µM (inactive) |  | 5.26 µM (inactive) |  | 3.03 µM (inactive) | 6.22 µM (inactive) | 
C=CCSC[C@H](NC(=O)COc1ccccc1)C(=O)NC(C(=O)OCc1ccc([N+](=O)[O-])cc1)=C(C)C | > 100 µM (inactive) | > 100 µM (inactive) | 32.1 µM (inactive) | 50.4 µM (inactive) | 45.3 µM (inactive) |  | > 100 µM (inactive) | 63.2 µM (inactive) | 90.8 µM (inactive)
CC(=O)Nc1ccc(C(=O)NN2C(=O)C(Cl)C2c2ccccc2)cc1 (stereo not drawn) | > 100 µM (inactive) |  | > 100 µM (inactive) | > 100 µM (inactive) |  |  | > 100 µM (inactive) | > 100 µM (inactive) | 
CC(O)CCCOC(c1ccccc1)(c1ccccc1)c1ccccc1 (stereo not drawn) | 17.2 µM (inactive) |  | 17 µM (inactive) |  | 13.2 µM (inactive) | 14.7 µM (inactive) | 10.4 µM (inactive) | 14.7 µM (inactive) | 
C[N+]1(CCNP(=S)(NCC[N+]2(C)Cc3c(ccc4c3OCO4)C3C2c2cc4c(cc2C[C@@H]3O)OCO4)NCC[N+]2(C)Cc3c(ccc4c3OCO4)C3C2c2cc4c(cc2C[C@@H]3O)OCO4)Cc2c(ccc3c2OCO3)C2C1c1cc3c(cc1C[C@H]2O)OCO3 (stereo partly drawn) | < 0.00191 µM (active) | < 0.00191 µM (active) | < 0.00191 µM (active) | < 0.00191 µM (active) |  | < 0.00191 µM (active) | < 0.00191 µM (active) | < 0.00191 µM (active) | 
CCC(C)(O)c1cn(-c2ccc(S(=O)(=O)O)cc2)nn1 (stereo not drawn) | > 100 µM (inactive) | > 100 µM (inactive) | > 100 µM (inactive) | > 100 µM (inactive) | > 100 µM (inactive) | > 100 µM (inactive) | > 100 µM (inactive) | > 100 µM (inactive) | > 100 µM (inactive)
C[N+](C)(C)CC1CCCCC1=O (stereo not drawn) | 19.8 µM (inactive) | 16.3 µM (inactive) | 18.5 µM (inactive) | 71.3 µM (inactive) | 36.9 µM (inactive) |  | 2 µM (inactive) |  | 
CC(N)Cc1cccc(C(F)(F)F)c1 (stereo not drawn) | > 100 µM (inactive) | > 100 µM (inactive) | > 100 µM (inactive) | > 100 µM (inactive) | > 100 µM (inactive) |  | > 100 µM (inactive) | > 100 µM (inactive) | > 100 µM (inactive)
CC(=O)C1=C(O)C2C3c4c[nH]c5cccc(c45)CC3C(C)(C)N2C1=O (stereo not drawn) | 40.8 µM (inactive) | 21.2 µM (inactive) | > 100 µM (inactive) | 27.5 µM (inactive) | 20.4 µM (inactive) | 51.4 µM (inactive) | 31.6 µM (inactive) | > 100 µM (inactive) | 
COc1cc2c(c(OC)c1OC)-c1ccc(SC)c(=O)cc1[C@@H](NCc1ccc(F)cc1)CC2 | < 0.0075 µM (active) | 9.1 µM (inactive) |  | < 0.0075 µM (active) |  | < 0.0075 µM (active) | < 0.0075 µM (active) | < 0.0075 µM (active) | < 0.0075 µM (active)
